Values joined by “and” are separate entries in the source; they are usually repeats but may differ in a detail not shown here. Equal entries are not always repeated. Numbers after ± are expanded uncertainties.
Conditions: Liquid, Transpiration method

N#CCCO [3-hydroxypropanenitrile]
vapor or sublimation pressure (306.3 K): 0.01564 ± 0.00078 kPa | vapor or sublimation pressure (311.3 K): 0.02299 ± 0.0011 kPa | vapor or sublimation pressure (314.3 K): 0.02755 ± 0.0014 kPa | vapor or sublimation pressure (317.3 K): 0.03639 ± 0.0018 kPa | vapor or sublimation pressure (318.6 K): 0.03759 ± 0.0019 kPa | vapor or sublimation pressure (321.4 K): 0.04504 ± 0.0023 kPa | vapor or sublimation pressure (321.7 K): 0.04955 ± 0.0025 kPa | vapor or sublimation pressure (323.3 K): 0.05382 ± 0.0027 kPa | vapor or sublimation pressure (325.4 K): 0.06297 ± 0.0032 kPa | vapor or sublimation pressure (326.3 K): 0.06361 ± 0.0032 kPa | vapor or sublimation pressure (328.6 K): 0.07507 ± 0.0038 kPa | vapor or sublimation pressure (331.4 K): 0.08563 ± 0.0043 kPa and 0.09147 ± 0.0046 kPa | vapor or sublimation pressure (333.4 K): 0.1054 ± 0.0053 kPa | vapor or sublimation pressure (336.3 K): 0.1286 ± 0.0065 kPa | vapor or sublimation pressure (336.4 K): 0.1232 ± 0.0063 kPa | vapor or sublimation pressure (338.5 K): 0.1442 ± 0.0072 kPa | vapor or sublimation pressure (340.4 K): 0.1598 ± 0.008 kPa | vapor or sublimation pressure (341.5 K): 0.1816 ± 0.0091 kPa | vapor or sublimation pressure (343.4 K): 0.2025 ± 0.01 kPa | vapor or sublimation pressure (346.6 K): 0.2592 ± 0.013 kPa | vapor or sublimation pressure (351.7 K): 0.3404 ± 0.017 kPa | vapor or sublimation pressure (356.8 K): 0.4425 ± 0.022 kPa | vapor or sublimation pressure (361.8 K): 0.5765 ± 0.029 kPa
